Where two headings read alike, the source gives them in different places.
Tests used:
WT P. aeruginosa PAO1 = experiment: Checkerboard combination study / MIC; format: cell-based, Pseudomonas aeruginosa; settings: for MIC: Pseudomonas aeruginosa; for FICI in the presence of ≤10 μM of 1: antibiotic + compound 1; for FICI in the presence of ≤10 μM of 1 / MIC of Antibiotics in the presence of ≤10 μM of 1 / FICI in the presence of ≤10 μM of 2 / MIC of Antibiotics in the presence of ≤10 μM of 2 / FICI in the presence of ≤10 μM of 3 / MIC of Antibiotics in the presence of ≤10 μM of 3: WT PAO1; for MIC of Antibiotics in the presence of ≤10 μM of 1: antibiotic + compound 1 ≤10 μM; for FICI in the presence of ≤10 μM of 2: antibiotic + compound 2; for MIC of Antibiotics in the presence of ≤10 μM of 2: antibiotic + compound 2 ≤10 μM; for FICI in the presence of ≤10 μM of 3: antibiotic + compound 3; for MIC of Antibiotics in the presence of ≤10 μM of 3: antibiotic + compound 3 ≤10 μM; for MIC of antibiotic alone in PAO1: PAO1 wild-type (Table 4)
PAO200 = format: cell-based, Pseudomonas aeruginosa; settings: for MIC of antibiotic alone in PAO200: PAO200 efflux-deficient
Source text: (§1) PAO200 is a tnexA-rnexB-oprM deletion strain while PAO750 lacks five important RND pumps (McxAB-OprM, MexCD-OprJ, MexEF-OprN, Mex JK, and MexXY) and the outer membrane protein OpmH (46, 47). Some of these pumps are homologues of broad substrate specificities that extrude different classes of antimicrobial agents and confer resistance on P. aeruginosa (48).
(§2) Antimicrobial Susceptibility Assay. The in vitro antimicrobial activity of all compounds/antibiotics against a panel of bacteria was evaluated by microbroth dilution method in accordance with the Clinical and Laboratory Standards Institute (CLSI) guidelines. Overnight grown bacterial cultures were diluted in saline to achieve a 0.5 McFarland turbidity, followed by 1:50 dilution in Mueller-Hinton broth (MHB) for inoculation to a final concentration of approximately 5×10^5CFU/mL. The antimicrobial agents were 2-fold serially diluted in MHB in a 96-well plate and incubated at 37° C. with equal volumes of inoculum for 18 h. The lowest concentration that prevented the visible growth of bacteria was defined as the MIC for each antimicrobial agent. The broth with or without bacterial cells was used as positive or negative control, respectively.
(§3) Checkerboard Assay. Combination studies with different antibiotics were performed in 96-well plates as previously described (22). Briefly, the antibiotic of interest was serially diluted in MHB along the abscissa while the adjuvant (newly synthesized conjugates) was serially diluted in MHB along the ordinate. This creates a 10×7 matrix wherein each well consists of a combination of different antibiotic and adjuvant concentrations. Overnight grown bacterial cultures were diluted in saline to achieve a 0.5 McFarland turbidity, followed by 1:50 dilution in Mueller-Hinton broth (MHB) for inoculation to a final concentration of approximately 5×10^5CFU/mL. Equal volume of this bacterial culture was then added to each well and incubated at 37° C. for 18 h. After incubation, the plates were read on EMax® Plus microplate reader (Molecular Devices, Sunnyvale, Calif., USA) at 590 nm. MIC was recorded as wells with the lowest concentration of drugs with no bacterial growth. The fractional inhibitory concentration (FIC) for each antibiotic was calculated by dividing the MIC of the antibiotic in the presence of adjuvant by the MIC of the antibiotic alone. Similarly, the FIC of adjuvant was calculated by dividing the MIC of the adjuvant in the presence of antibiotic by the MIC of the adjuvant alone. FIC index is the sum of both FICs. FIC indices of <0.5 were deemed synergistic; 0.5-4, no interaction; and >4, antagonistic.

PAO750 = format: cell-based, Pseudomonas aeruginosa; settings: for MIC of antibiotic alone in PAO750: PAO750 efflux-deficient
Source text: as §1, §2, §3

MDR PA101885 = experiment: Time-kill assay; format: cell-based, Pseudomonas aeruginosa; settings: for interaction with compound 2 in time-kill: 24 h; for time-kill effect, antibiotic + compound 2: CLSI breakpoint concentration + 4.4 μM or 8.7 μM compound 2, after about 6 h; for time-kill effect, antibiotic alone: at CLSI breakpoint concentration (aztreonam 8 μg/mL, meropenem 2 μg/mL)
Protocol: (§4) Time-kill curves typically reveal the kinetics of bacterial growth and death, with respect to time, at different antimicrobial concentrations. An antibiotic could either be bactericidal or bacteriostatic under specific growth conditions. Bactericidal activity is defined as a ≥3-log reduction in the total CFU/mL from the original inoculum over 24 hours while bacteriostatic activity is defined as maintenance of <3-log reduction in the total CFU/mL from the original inoculum (44). […] Growth curves were initially performed to ensure that strains will reach a stable early- to mid-log phase after 4 h of pre-incubation in antimicrobial-free LB medium.
(§5) Time-kill assay. Time-kill curve analyses were performed by culturing P. aeruginosa in LB medium, in the presence of antibiotics alone and in combination with test adjuvants. MICs of antibiotics and adjuvants were determined before the experiment following CLSI microbroth dilution guidelines. Growth curves were initially performed to confirm that all strains will reach a stable early- to mid-log phase after 4 h of pre-incubation in antimicrobial-free LB medium. A 0.5 McFarland inoculum of each strain was prepared in sterile 0.85% saline solution from an overnight grown culture. For each strain, 30 μl of the prepared inoculum was diluted to 3 ml of LB broth (containing different combinations of antimicrobial agents and adjuvants) and incubated at 37° C. shaking at 250 rpm. At specific time intervals (0, 1, 3, 6, 9, and 24 h), 100 μl was taken from each sample, serially diluted in sterile PBS, plated on LB agar plates, and incubated at 37° C. in a humid 5% CO2-enriched atmosphere. Bacteria colonies were counted after 20 h of incubation.

[1] = system: wild type P. aeruginosa PAO1; experiment: Time-kill assay; format: cell-based, Pseudomonas aeruginosa; settings: WT PAO1; for interaction with compound 2 in time-kill: 24 h; for time-kill effect, antibiotic alone: at MIC (aztreonam 4 μg/mL, meropenem 1 μg/mL)
Protocol: as §4, §5

[2] = system: MDR PA101885-challenged larvae; experiment: Galleria mellonella infection model, efficacy; format: in vivo; settings: for survival of larvae / mortality of larvae, monotherapy: after 24 h; for mortality of larvae, monotherapy: aztreonam […], meropenem 37.5 mg/kg, compound 2 100 mg/kg
Protocol: In vivo synergistic effects were determined using Galleria mellonella infection model, as previously described (20). Briefly, worms were purchased from The Worm Lady® Live Feeder (ON, Canada), stored in their natural habitat at 16° C., and used within 10 days of delivery. The worms (average weight of 250 mg) were used for tolerability and efficacy studies. Tolerability study was performed by injecting 10 μL of antimicrobial agents only at concentrations equivalent to 100 mg/kg or 200 mg/kg. The worms (ten in each group) were incubated at 37° C. and monitored for 96 h. For efficacy studies, the virulence and bacterial load required to kill 100% of the worms within 12-18 h (with no treatment) was first determined, which is approximately 5 CFU. Overnight grown culture of respective MDR P. aeruginosa isolate was standardized to 0.5 McFarland standard and diluted in PBS to a final concentration of 5×10^2CFU/mL. 10 μL of this solution (5 CFU) was injected into each worm and incubated for 3 h at 37° C. […] Worms treated with 10 μL PBS or high concentrations of test antibiotics served as negative and positive control, respectively. The worms were incubated at 37° C. in Petri dishes lined with filter paper and scored for survivability every 6 h for up to 48 h. This experiment was repeated to give a total of thirty worms (n=30) in each case. Survival data curves were plotted using Kaplan-Meier survival analysis.

E. coli ATCC 25922 = experiment: MIC, microbroth dilution; format: cell-based; settings: standalone
Protocol: as §2

MRSA ATCC 33592 = experiment: MIC, microbroth dilution; format: cell-based; settings: standalone
Protocol: as §2

MDR PA108590 = experiment: Time-kill assay, triple combination; format: cell-based, Pseudomonas aeruginosa
[3] = system: MDR PA108590-challenged larvae; experiment: Galleria mellonella infection model, efficacy; format: in vivo
Source text: In vivo larvae-infection model.

PA108590 = experiment: MIC / triple combination susceptibility; format: cell-based, Pseudomonas aeruginosa
Source text: The diazabicyclooctane β-lactamase inhibitor, avibactam, is able to inhibit a wide range of serine β-lactamases (class A, C, and D) but not metallo-β-lactamases (class B) (50, 51).^50,51 However, the high concentration of avibactam required to neutralize the effects of β-lactamase enzymes in these phenotypes is indicative of concomitant permeability barriers in the isolates, such as reduced porin uptake. […] The results of this study are shown in (FIG. 6). All isolates were resistant to all three β-lactam antibiotics used for the study. […] As expected, the study with meropenem was slightly different from others.
Antimicrobial Susceptibility Assay. The in vitro antimicrobial activity of all compounds/antibiotics against a panel of bacteria was evaluated by microbroth dilution method in accordance with the Clinical and Laboratory Standards Institute (CLSI) guidelines. […]
Checkerboard Assay. […] After incubation, the plates were read on EMax® Plus microplate reader (Molecular Devices, Sunnyvale, Calif., USA) at 590 nm. MIC was recorded as wells with the lowest concentration of drugs with no bacterial growth. The fractional inhibitory concentration (FIC) for each antibiotic was calculated by dividing the MIC of the antibiotic in the presence of adjuvant by the MIC of the antibiotic alone. […]

[4] = PAO1, 18 h, antibiotic alone, WT PAO1 (Table 2), read-out: MIC alone
[5] = PAO1, time-kill study text and FIG. 7 legend, read-out: MIC against WT PAO1

| Compound | MIC of antibiotic + Compound 2 in PAO1 (WT P. aeruginosa PAO1; + compound 2 ≤8.7 μM, PAO1) | MIC (WT P. aeruginosa PAO1; [4]) | MIC (WT P. aeruginosa PAO1; [5]) | FICI in the presence of ≤10 μM of 1 (WT P. aeruginosa PAO1) | MIC of Antibiotics in the presence of ≤10 μM of 1 (WT P. aeruginosa PAO1) | FICI in the presence of ≤10 μM of 2 (WT P. aeruginosa PAO1) | MIC of Antibiotics in the presence of ≤10 μM of 2 (WT P. aeruginosa PAO1) | FICI in the presence of ≤10 μM of 3 (WT P. aeruginosa PAO1) | MIC of Antibiotics in the presence of ≤10 μM of 3 (WT P. aeruginosa PAO1) | MIC of antibiotic alone in PAO1 (WT P. aeruginosa PAO1; antibiotic alone) | MIC of antibiotic + Compound 2 in PAO200 (PAO200; + compound 2 ≤8.7 μM, PAO200) | MIC of antibiotic alone in PAO200 (PAO200) | MIC of antibiotic + Compound 2 in PAO750 (PAO750; + compound 2 ≤8.7 μM, PAO750) | MIC of antibiotic alone in PAO750 (PAO750) | interaction with compound 2 in time-kill (MDR PA101885) | time-kill effect, antibiotic + compound 2 (MDR PA101885) | time-kill effect, antibiotic alone (MDR PA101885) | interaction with compound 2 in time-kill [1] | time-kill effect, antibiotic alone [1] | mortality of larvae, monotherapy [2] | further results |
| --- | --- | --- | --- | --- | --- | --- | --- | --- | --- | --- | --- | --- | --- | --- | --- | --- | --- | --- | --- | --- | --- |
| C[C@H]1[C@H](NC(=O)/C(=N\OC(C)(C)C(=O)O)c2csc(N)n2)C(=O)N1S(=O)(=O)O [Aztreonam] | 0.25 µg/mL | 4 µg/mL | 4 µg/mL | 0.13 | 0.5 µg/mL | 0.07 | 0.25 µg/mL | 0.14 | 0.5 µg/mL | 4 µg/mL | 0.016 µg/mL | 0.25 µg/mL | 0.031 µg/mL | 0.5 µg/mL | synergistic | strongly bactericidal | bacteriostatic effect | synergistic | time-dependent bactericidal effect |  | MIC (WT P. aeruginosa PAO1; PAO1, FIG. 7 legend, read-out: MIC against WT PAO1): 0.004 µg/mL; survival of larvae ([2]; aztreonam 25 mg/kg single dose): 50% |
| 5-O-(Octylcyclam)-tobramycin.9TFA [Compound 2] |  |  |  |  |  |  |  |  |  |  |  |  |  |  |  |  |  |  |  | 100% | MIC (E. coli ATCC 25922): 64 µg/mL; MIC (MRSA ATCC 33592): 64 µg/mL; bacterial counts lower than ceftazidime+avibactam (MDR PA108590; ceftazidime + avibactam + compound 2, after 3 h): > 2 Log; time to sterilization of bacteria culture (MDR PA108590; triple combination ceftazidime + avibactam + compound 2, limit of detection 10 CFU/mL): ≤ 3 h; reduction in total CFU/mL from original inoculum (MDR PA108590; triple combination ceftazidime + avibactam + compound 2, within 3 h): 6 Log; activity by itself against MDR PA101885 ([2]; in vitro and in vivo): innately inactive; survival of larvae ([2]; meropenem + compound 2, 25+25 mg/kg): 0%; survival of larvae ([2]; meropenem + compound 2, 37.5+37.5 mg/kg): 85%; survival of larvae ([3]; ceftazidime+avibactam+compound 2, 1.56+1.56+3.12 mg/kg, after 24 h): 100%; survival of larvae ([3]; ceftazidime+avibactam+compound 2, 1.56+1.56+3.12 mg/kg, after 36 h): 95%; potentiation of all three β-lactam antibiotics (PA108590; triple combination with avibactam and compound 2 (8 μM each), ceftazidime, aztreonam, meropenem): 128 fold |
| CC(C)(O/N=C(\C(=O)N[C@@H]1C(=O)N2C(C(=O)[O-])=C(C[n+]3ccccc3)CS[C@H]12)c1csc(N)n1)C(=O)O [Ceftazidime] | 0.5 µg/mL |  |  | 0.25 | 0.5 µg/mL | 0.13 | 0.25 µg/mL | 0.25 | 0.5 µg/mL | 4 µg/mL |  | 2 µg/mL |  | 1 µg/mL |  |  |  |  |  |  | MIC (WT P. aeruginosa PAO1; PAO1, antibiotic alone, WT PAO1 (Table 2), read-out: MIC alone): 2 µg/mL; time-kill effect, alone (MDR PA108590; 16 μg/mL, i.e. half MIC, MDR PA108590): bactericidal effects after 3 h; survival of larvae ([3]; ceftazidime 1.56 mg/kg single dose, after 24 h): 50%; survival of larvae ([3]; ceftazidime 1.56 mg/kg single dose, after 36 h): 10%; MIC (PA108590; Pseudomonas aeruginosa, P. aeruginosa 108590, FIG. 8 legend): 0.032 µg/mL |
| C[C@@H](O)[C@H]1C(=O)N2C(C(=O)O)=C(S[C@@H]3CN[C@H](C(=O)N(C)C)C3)[C@H](C)[C@H]12 [Meropenem] | 0.25 µg/mL | 1 µg/mL | 1 µg/mL | 0.25 (0.25) | 0.25 (0.25) μg/ml | 0.26 | 0.25 µg/mL | 0.50 | 0.5 µg/mL | 1 µg/mL | 0.063 µg/mL | 0.25 µg/mL | 0.25 µg/mL | 1 µg/mL | synergistic | strongly bactericidal | bacteriostatic effect | indifferent | time-dependent bactericidal effect | 100% | fold change of MIC + Compound 2 in PAO1 (WT P. aeruginosa PAO1; + compound 2 ≤8.7 μM, PAO1): 4; fold change of MIC + Compound 2 in PAO200 (PAO200; + compound 2 ≤8.7 μM, PAO200): 4; fold change of MIC + Compound 2 in PAO750 (PAO750; + compound 2 ≤8.7 μM, PAO750): 4; survival of larvae ([2]; meropenem 37.5 mg/kg single dose): 0%; survival of larvae ([2]; meropenem 50 mg/kg single dose): 80% |

— patent US20210290648A1, “Potentiation of B-Lactam Antibiotics and B-Lactam/B-Lactamase Inhibitor Combinations Against Multidrug and Extensively Drug-Resistant Pseudomonas Aeruginosa Using Non-Ribosomal Tobramycin-Cyclam Conjugates” (University of Manitoba, priority 2018, published 2021)
